Measurements reported in patent US9353089B2, “Compositions and methods for the treatment of malaria” (Saint Louis University, priority 2013, dated 2016).
Where two headings read alike, the source gives them in different places.

How the values were obtained:
[1] = biological target: Plasmepsin-2 (PM-2; Plm II) (Plasmodium falciparum (isolate HB3), UniProt P46925); assay: Plasmepsin-2 enzyme inhibition assay; assay type: biochemical
Outline: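 Enzymes activated in pH 4.5 citrate/DTT buffer, then assayed in 50 mM sodium acetate pH 4.7, 0.01% Tween-20. Compounds added before fluorogenic peptide substrate (final 20 µM); 60 min at room temperature, fluorescence Ex/Em 360/535 nm, IC50 by curve fit.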

[2] = system: Plasmodium falciparum 3D7 (CQ-sensitive); assay: In vitro antimalarial assay (malaria SYBR Green I-based fluorescence, MSF), 3D7; assay type: cell-based
Outline: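 Asynchronous P. falciparum 3D7 cultures (0.5% parasitemia, 2% hematocrit) were exposed to serially diluted compounds, in quadruplicate. Growth was then quantified by SYBR Green I fluorescence after adding lysis buffer containing 0.2 μL/mL dye.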

[3] = biological target: Plasmepsin (PM-4; Plm IV) (Plasmodium falciparum (isolate 3D7), UniProt Q8IM16); assay: Plasmepsin-4 enzyme inhibition assay; assay type: biochemical; conditions: Table 8
Method: Plasmepsin-2 (PM-2; Plm II) and Plasmepsin (PM-4; Plm IV) expression and purification was performed following the published protocols (Istvan E S and Goldberg D E, 2005). The final purified protein was activated by diluting the protein to 0.3 mg/mL in activating buffer (0.1 M citrate pH 4.5, 0.1% Tween-20, 50 mM dithiothreitol) and incubated at room temperature for 40 min, then the activated enzyme was diluted in assay buffer (50 mM sodium acetate pH 4.7, 0.01% Tween-20). The enzymatic inhibition reaction was performed in 384 well plates with a total volume of 20 μl. 10 μl of diluted PM-2 or PM-4 enzyme was added to the 384-well plate except blank wells (blank wells add 10 μL of assay buffer) and 20 nL of serials of diluted 1000× compounds were added to the wells with 520 Echo® Liquid Handling System (Labcyte Inc.). 10 μL PM-2 peptide substrate (AnaSpec, Cat#, 62050) with assay buffer was then added to final concentration of 20 μM to start the reaction. After incubation the reaction at room temperature for 60 min, the fluorescence intensity at Ex/Em=360 nm/535 nm was measured using EnVision multilabel plate reader (Perkin-Elmer). The IC50 values were obtained using Graph Pad Prism 4 and are reported in Tables 8 and 9 below as PM-2 IC50 values.

[4] = biological target: recombinant human Cathepsin D (Homo sapiens (Human), UniProt P07339); assay: Cathepsin D enzyme inhibition FRET assay; assay type: biochemical; conditions: Table 8; read-out: CatD IC50
Method: (§1) The enzymatic inhibition activity assays were determined using the fluorescence resonance energy transfer (FRET) assay. The assays were performed in a 384-well plate format. […] The concentration of Cathepsin D was 20 ng/μL, and 1 ng/μL of Cathepsin E was used. CatD and CatE were activated by incubation in assay buffer (0.1 M NaOAc, 0.2 M NaCl, pH 3.5) at room temperature for 30 min. Subsequently, the rhBACE-1 substrate (R&D Systems, catalog# ES004), the Cathepsin D and Cathepsin E substrate (R&D Systems, Catalog # ES001) were added accordingly to final concentration 20 μM to initiate the reaction. After 60 min incubation at room temperature, the time-resolved fluorescence at Ex/Em=360 nm/460 nm was measured on an EnVision multilabel plate reader (Perkin-Elmer). The analytical software, GraphPad Prism 5.0 (GraphPad Software, Inc., USA) was used to generate IC50 values via non-linear regression analysis, which are reported in Tables 8-13 below as BACE1 IC50 values.

recombinant human BACE1 [5] = biological target: recombinant human BACE1 (Homo sapiens, UniProt P56817); assay: β-Secretase (BACE1) enzyme inhibition FRET assay; assay type: biochemical
Method: (§2) The enzymatic inhibition activity assays were determined using the fluorescence resonance energy transfer (FRET) assay. The assays were performed in a 384-well plate format. […] CatD and CatE were activated by incubation in assay buffer (0.1 M NaOAc, 0.2 M NaCl, pH 3.5) at room temperature for 30 min. Subsequently, the rhBACE-1 substrate (R&D Systems, catalog# ES004), the Cathepsin D and Cathepsin E substrate (R&D Systems, Catalog # ES001) were added accordingly to final concentration 20 μM to initiate the reaction. After 60 min incubation at room temperature, the time-resolved fluorescence at Ex/Em=360 nm/460 nm was measured on an EnVision multilabel plate reader (Perkin-Elmer). The analytical software, GraphPad Prism 5.0 (GraphPad Software, Inc., USA) was used to generate IC50 values via non-linear regression analysis, which are reported in Tables 8-13 below as BACE1 IC50 values.

[6] = biological target: recombinant human Cathepsin E (Homo sapiens (Human), UniProt P14091); assay: Cathepsin E enzyme inhibition FRET assay; assay type: biochemical; conditions: Table 8; read-out: CatE IC50
Method: as §1

recombinant human BACE1 [7] = assay: β-Secretase (BACE1) enzyme inhibition FRET assay; assay type: biochemical
Method: as §2

[8] = 3D7, Table 8, read-out: Pf 3D7 IC50
[9] = 3D7, read-out: 3D7 IC50 (μM), Table 13
[10] = 3D7, read-out: Pf 3D7 IC50 (μM), Table 11
[11] = 3D7, read-out: Pf 3D7 IC50, Table 8
[12] = 3D7, Table 10, read-out: Pf3D7 IC50
[13] = 3D7, Table 13, read-out: 3D7 IC50
[14] = ratio of BACE1 IC50 to PM-2 IC50
[15] = 3D7, read-out: 3D7 IC50 (μM), Table 12

Chain of Plasmepsin (PM-4; Plm IV) (Q8IM16 122-449 limits assumed): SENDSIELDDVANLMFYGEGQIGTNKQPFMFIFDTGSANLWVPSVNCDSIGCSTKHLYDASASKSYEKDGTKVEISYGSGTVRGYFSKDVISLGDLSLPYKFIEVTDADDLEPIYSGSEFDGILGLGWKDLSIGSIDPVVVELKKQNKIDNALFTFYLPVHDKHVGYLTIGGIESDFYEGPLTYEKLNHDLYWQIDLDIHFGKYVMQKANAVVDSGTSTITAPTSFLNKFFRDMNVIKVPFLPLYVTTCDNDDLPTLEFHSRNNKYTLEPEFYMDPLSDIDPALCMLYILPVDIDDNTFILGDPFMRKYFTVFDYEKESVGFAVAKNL
Chain of recombinant human Cathepsin E (P14091 54-396): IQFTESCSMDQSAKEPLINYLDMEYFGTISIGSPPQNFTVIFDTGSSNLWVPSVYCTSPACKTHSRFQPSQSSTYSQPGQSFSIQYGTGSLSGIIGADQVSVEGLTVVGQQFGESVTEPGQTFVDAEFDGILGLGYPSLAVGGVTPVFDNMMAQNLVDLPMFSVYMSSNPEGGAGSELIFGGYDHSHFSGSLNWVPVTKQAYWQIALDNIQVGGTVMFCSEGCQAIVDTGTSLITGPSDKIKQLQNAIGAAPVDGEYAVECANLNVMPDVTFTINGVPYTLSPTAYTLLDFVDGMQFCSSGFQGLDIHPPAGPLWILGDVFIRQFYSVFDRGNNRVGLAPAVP
Chain of Plasmepsin-2 (PM-2; Plm II) (P46925 125-453 limits assumed): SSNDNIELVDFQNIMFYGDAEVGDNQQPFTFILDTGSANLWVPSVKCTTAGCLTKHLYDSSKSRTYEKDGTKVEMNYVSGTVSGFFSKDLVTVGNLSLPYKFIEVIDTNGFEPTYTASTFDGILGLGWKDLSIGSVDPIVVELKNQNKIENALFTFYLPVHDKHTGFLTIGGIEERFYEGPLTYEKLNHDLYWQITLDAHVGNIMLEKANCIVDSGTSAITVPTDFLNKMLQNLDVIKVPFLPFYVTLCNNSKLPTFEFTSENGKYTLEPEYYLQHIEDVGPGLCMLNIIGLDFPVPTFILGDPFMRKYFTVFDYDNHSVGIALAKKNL
Chain of recombinant human Cathepsin D (P07339 65-412): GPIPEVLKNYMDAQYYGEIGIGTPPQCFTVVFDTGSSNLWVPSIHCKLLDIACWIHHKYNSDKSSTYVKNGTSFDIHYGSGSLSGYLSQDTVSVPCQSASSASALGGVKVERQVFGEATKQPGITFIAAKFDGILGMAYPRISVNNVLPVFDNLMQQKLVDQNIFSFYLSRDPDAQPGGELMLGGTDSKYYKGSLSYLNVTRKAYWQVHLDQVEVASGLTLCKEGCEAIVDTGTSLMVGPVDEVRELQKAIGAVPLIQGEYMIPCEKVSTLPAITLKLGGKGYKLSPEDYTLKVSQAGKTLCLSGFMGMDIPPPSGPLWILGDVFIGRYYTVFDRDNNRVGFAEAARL
Chain of recombinant human BACE1 (Homo sapiens, UniProt P56817) (P56817 46-501 limits assumed): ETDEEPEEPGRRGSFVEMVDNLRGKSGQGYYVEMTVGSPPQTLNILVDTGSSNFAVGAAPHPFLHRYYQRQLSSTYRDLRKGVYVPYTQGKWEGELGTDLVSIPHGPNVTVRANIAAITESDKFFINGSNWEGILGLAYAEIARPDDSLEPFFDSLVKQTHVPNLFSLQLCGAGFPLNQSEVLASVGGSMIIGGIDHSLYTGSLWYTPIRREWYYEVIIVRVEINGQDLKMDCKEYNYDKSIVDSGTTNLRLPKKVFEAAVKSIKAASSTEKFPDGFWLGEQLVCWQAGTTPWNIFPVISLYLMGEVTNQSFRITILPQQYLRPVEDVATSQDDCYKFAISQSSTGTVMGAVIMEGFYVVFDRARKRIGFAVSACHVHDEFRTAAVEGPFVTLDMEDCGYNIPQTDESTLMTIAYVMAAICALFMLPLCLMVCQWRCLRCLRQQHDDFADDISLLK

Row | Compound | IC50 ([1]; Table 8, read-out: PM-II IC50) | IC50 [3] | IC50 ([1]; Table 13, read-out: PM-2 IC50) | IC50 (recombinant human BACE1 [5]; Table 13, read-out: BACE1 IC50) | IC50 [2, 9] | also measured
1 | COc1ccc(C2(c3ccc(OC)cc3)NC(=O)N(C3CCCCC3)C2=O)cc1 | > 10000 nM | > 10000 nM |  |  |  | IC50 [2, 8]: > 10 µM
2 | COc1cccc(C2(c3cccc(OC)c3)NC(=N)N(C3CCCCC3)C2=O)c1 [Example 128, 3-cyclohexyl-2-imino-5,5-bis(3-methoxyphenyl)-imidazolidin-4-one] | 36 nM | 41 nM | 35.9 nM | 28900 nM | 0.768 µM | IC50 [4]: 1100 nM; IC50 (recombinant human BACE1 [5]; Table 8, read-out: BACE IC50): 28900 nM; IC50 [2, 10]: 0.768 µM; IC50 [2, 11]: 0.768 µM; IC50 [6]: 1860 nM
3 | COc1ccc(C2(c3ccc(OC)cc3)NC(=N)N(C3CCN(C)CC3)C2=O)cc1 [Example 166, 2-imino-5,5-bis(4-methoxyphenyl)-3-(1-methylpiperidin-4-yl)imidazolidin-4-one] | 35 nM | 109 nM | 34.7 nM |  |  | IC50 [2, 8]: 0.697 µM; IC50 [2, 12]: 0.697 µM; IC50 [2, 13]: 0.697 µM
4 | COc1ccc(C2(c3cccc(-c4cccnc4)c3)NC(=N)N(C3CCCCC3)C2=O)cc1 (centres unmarked) [Example 171, 3-cyclohexyl-2-imino-5-(4-methoxyphenyl)-5-[3-(pyridin-3-yl)phenyl]-imidazolidin-4-one] | 7 nM | 7 nM | 6.97 nM | ~7150 nM | 0.595 µM | IC50 [4]: ~14900 nM; IC50 (recombinant human BACE1 [5]; Table 8, read-out: BACE IC50): ~7150 nM; IC50 [2, 10]: 0.595 µM; IC50 [2, 11]: 0.595 µM; IC50 [6]: 4010 nM
5 | COc1ccc(C2(c3ccc(OC)cc3)NC(=N)N(C3CCNCC3)C2=O)cc1 [Example 207, 2-imino-5,5-bis(4-methoxyphenyl)-3-(piperidin-4-yl)-imidazolidin-4-one] | 505 nM | 192 nM | 505 nM |  |  | IC50 [2, 8]: > 5 µM; IC50 [2, 12]: > 5 µM; IC50 [2, 13]: > 5 µM
6 | COc1cccc(-c2cccc(C3(c4ccccc4)NC(=N)N(C4CCOCC4)C3=O)c2)c1 (centres unmarked) [Example 324, 2-imino-5-[3-(3-methoxyphenyl)-phenyl]-3-(oxan-4-yl)-5-phenylimidazolidin-4-one] |  |  | 11.3 nM | 2460 nM | 1.46 µM | IC50 ([1]; Table 12, read-out: PM-2 IC50): 11.3 nM; IC50 (recombinant human BACE1 [5]; Table 12, read-out: BACE1 IC50): 2460 nM; BACE1/PM2 Ratio (recombinant human BACE1 [7]; [14]): 218; IC50 [2, 15]: 1.46 µM
7 | COc1cccc(-c2cccc(C3(c4ccccc4)NC(=N)N(C4CCCCC4)C3=O)c2)c1 (centres unmarked) [Example 326, 3-cyclohexyl-2-imino-5-[3-(3-methoxyphenyl)phenyl]-5-phenylimidazolidin-4-one] |  |  | 33.1 nM | ~8900 nM | 1.34 µM | IC50 ([1]; Table 12, read-out: PM-2 IC50): 33.1 nM; IC50 (recombinant human BACE1 [5]; Table 12, read-out: BACE1 IC50): ~9000 nM; BACE1/PM2 Ratio (recombinant human BACE1 [7]; [14]): ~270; IC50 [2, 15]: 1.34 µM
8 | COc1cccc(-c2cccc(C3(C4CC4)NC(=N)N(C4CCCCC4)C3=O)c2)c1 (centres unmarked) [Example 328, 3-cyclohexyl-5-cyclopropyl-2-imino-5-[3-(3-methoxyphenyl)-phenyl]imidazolidin-4-one] |  |  | 104 nM | ~6800 nM | 0.746 µM | IC50 ([1]; Table 12, read-out: PM-2 IC50): 104 nM; IC50 (recombinant human BACE1 [5]; Table 12, read-out: BACE1 IC50): ~7000 nM; BACE1/PM2 Ratio (recombinant human BACE1 [7]; [14]): 67
9 | COc1cccc(-c2cccc(C3(C4CC4)NC(=N)N(C4CCOCC4)C3=O)c2)c1 (centres unmarked) [Example 329, 5-cyclopropyl-2-imino-5-[3-(3-methoxyphenyl)-phenyl]-3-(oxan-4-yl)imidazolidin-4-one] |  |  | 83.1 nM | ~3600 nM | 0.621 µM | IC50 ([1]; Table 12, read-out: PM-2 IC50): 83.1 nM; IC50 (recombinant human BACE1 [5]; Table 12, read-out: BACE1 IC50): ~4000 nM; BACE1/PM2 Ratio (recombinant human BACE1 [7]): 48; IC50 [2, 15]: 0.746 µM
10 | N#Cc1cncc(-c2cccc(C3(C4CC4)NC(=N)N(C4CCOCC4)C3=O)c2)c1 (centres unmarked) [Example 488, 5-(3-(4-cyclopropyl-2-imino-5-oxo-1-(tetrahydro-2H-pyran-4-yl)imidazolidin-4-yl)phenyl)nicotinonitrile] |  |  | 443 nM | 2980 nM | 0.362 µM | 
11 | N=C1NC(c2cccc(-c3cncc(Cl)c3)c2)(C2CC2)C(=O)N1C1CCOCC1 (centres unmarked) [Example 489, 5-(3-(5-chloropyridin-3-yl)phenyl)-5-cyclopropyl-2-imino-3-(tetrahydro-2H-pyran-4-yl)imidazolidin-4-one] |  |  | 211 nM | 1160 nM | 0.268 µM | 
12 | COc1ccc(C2(C3CC3)NC(=N)N(C3CCOCC3)C2=O)cc1-c1cccc(C#N)c1 (centres unmarked) [Example 491, 5′-(4-cyclopropyl-2-imino-5-oxo-1-(tetrahydro-2H-pyran-4-yl)imidazolidin-4-yl)-2′-methoxy-[1,1′-biphenyl]-3-carbonitrile] |  |  | 51.7 nM | 8320 nM | 0.47 µM | 
13 | N#Cc1cncc(-c2cccc(C3(C4CC4)NC(=N)N(C4CCCCC4)C3=O)c2)c1 (centres unmarked) [Example 513, 5-(3-(1-cyclohexyl-4-cyclopropyl-2-imino-5-oxoimidazolidin-4-yl)phenyl)nicotinonitrile] |  |  | 219 nM | 6640 nM | 0.4 µM | 
14 | N=C1NC(c2cccc(-c3cccnc3)c2)(C2CCCCC2)C(=O)N1C1CCOCC1 (centres unmarked) [Example 517, 5-cyclohexyl-2-imino-5-(3-(pyridin-3-yl)phenyl)-3-(tetrahydro-2H-pyran-4-yl)imidazolidin-4-one] |  |  | 125 nM | 14700 nM | 0.35 µM | 
15 | CCC(CN1C(=N)NC(c2ccccc2)(c2ccccc2)C1=O)c1ccccc1 (centres unmarked) [drawing 192] | 12 nM | 45 nM |  |  |  | IC50 [4]: 385 nM; IC50 (recombinant human BACE1 [5]; Table 8, read-out: BACE IC50): 2300 nM; IC50 [2, 11]: 2.76 µM; IC50 [6]: 99 nM
